{"source": "patent US20090227669A1", "about": "“Compositions and Methods for Perioperative Bladder Instillation” (THE UNIVERSITY OF TOLEDO, priority 2004, published 2009)", "key": {"[1]": {"conditions": "orally administered; along with at least five metabolites; cited from earlier work"}, "AY-27 cells [2]": {"tested_on": "AY-27 cells", "experiment": "DNA ladder assay in AY-27 cells", "assay_type": "cell-based, rat"}, "[3]": {"tested_on": "AY-27 rat transitional cancer cell line", "experiment": "AY-27 cell survival/growth under EGCG treatment", "assay_type": "cell-based"}, "AY-27 cells [4]": {"tested_on": "AY-27 cells", "experiment": "Intravesical EGCG instillation after AY-27 tumor cell implantation in cauterized rat bladder", "assay_type": "in vivo, Fisher 344 rats", "description": "Single Polyphenol (EGCG): Fisher 344 rats were maintained under guidelines of the Medical College of Ohio Institutional Animal Care and Use Committee. A combination ketamine (80 mg/kg)/xylazine (12 mg/kg) intraperitoneal injection was used to anesthetize the rats prior to surgery. The abdomen was shaved and prepped with an iodine solution under sterile conditions. Oxytetracycline 20 mg was injected subcutaneously for antibacterial prophylaxis. Under 4× microscopic magnification, a 1.5 cm midline incision exposed the bladder. A sterile, 22 gauge Angiocath cannula was then advanced transurethrally. A blunt-tipped 24 gauge copper wire was then advanced through the catheter and a […] current was used to cauterize the bladder wall creating a small, white puckered area. The skin and muscular layers of the abdominal wall were closed with a running 4-0 silk suture.\nAY-27 cells suspended in 0.25 cc of serum free RPMI-1640 medium were instilled transurethrally into 40 rats. The catheters were then capped and the tumor cells were allowed to dwell inside the bladder for 30 minutes. After tumor cell instillation, twelve rats (Group I) had two, separately hourly instillations of culture medium. Twenty-eight rats (Group II) were treated with a freshly prepared solution of 0.25 cc, 200 microM EGCG solution in RPLMI-1640 medium for 2 separate dwell times of one hour. […]"}}, "data": [{"smiles": "O=C(O[C@@H]1Cc2c(O)cc(O)cc2O[C@@H]1c1cc(O)c(O)c(O)c1)c1cc(O)c(O)c(O)c1", "note": "[EGCG, epigallocatechin-gallate]", "values": [{"measurement": "fraction of total administered EGCG found in urine", "setting": "[1]", "value": "0.03-0.59%"}, {"measurement": "banding pattern on DNA ladder assay (apoptosis)", "setting": "AY-27 cells [2]", "value": "weak banding pattern"}, {"measurement": "cellular growth of AY-27 cell line", "setting": "[3]", "value": "inhibits cellular growth"}, {"measurement": "cellular survival", "setting": "[3]; after two hours of treatment at all concentrations of EGCG", "value": "No cellular survival"}, {"measurement": "tumor growth rate", "setting": "AY-27 cells [4]; 200 microM EGCG, 0.25 cc, 2 separate dwell times of one hour, euthanized three weeks later, n=28, controls 100%", "value": 36, "unit": "%"}, {"measurement": "incidence of bladder tumor implantation", "setting": "AY-27 cells [4]; intravesical EGCG at 200 microM for 2 hours", "value": "significantly reduce"}]}]}
